# Test results: patent US9708315B2, “1,2,4-triazolo[4,3-a]pyridine compounds and their use as positive allosteric modulators of MGLUR2 receptors” (Janssen Pharmaceutica NV, priority 2013, dated 2017)
# Experiments:
# [1] = test system: Adult male CF No 1 albino mice; test: Minimal motor impairment (rotarod) in mice; format: in vivo
# Experimental: Test compounds were administered using an optimal fluid volume to body fluid ratio. Test compounds were administered to mice in a volume of 0.01 ml/g of body weight (White, H. S., et al., General principles: Experimental selection, quantification, and evaluation of antiepileptic drugs, in Antiepileptic Drugs, Fourth Edition, R. H. Levy, R. H. Mattson, and B. S. Meldrum, Editors. 1995, Raven Press, Ltd.: New York. p. 99-110). The test compound number 6 was administered orally (p.o.). For each of the tests performed on the test compound, a 40% Hydroxypropyl-β-cyclodextrin (Hp-β-CD) stock solution was first prepared and utilized for formulating the test compound number 6 at the desired concentrations for testing via the oral (p.o.) route. Final compound concentrations were administered as suspensions in 20% Hp-β-CD. A 20% Hp-β-CD solution was used for the vehicle groups.
# Adult male CF No 1 albino mice (26-35 g) were obtained from Charles River, Portage, Mich. The animals were maintained on an adequate diet (Prolab RMH 3000) and allowed free access to food and water, except during the short time they were removed from their cage for testing. Animals newly received in the laboratory were allowed sufficient time to correct for possible food and water restriction incurred during transit before being employed in testing. All mice were housed in plastic cages in specially constructed rooms with controlled humidity, exchange of air and controlled lighting (12 hours on-12 hours off). The animals were housed, fed, and handled in a manner consistent with the recommendations in the National Council Publication, “Guide for the Care and Use of Laboratory animals.” Experimental Design General Methods Minimal Motor Impairment (MMI):
# Acute MMI was assessed by a combination of direct observations of the animal for overt symptoms of the animal's neurological or muscular function. In mice, the rotarod procedure was used to disclose minimal muscular or neurological impairment. When a mouse is placed on a rod that rotates at a speed of 6 rpm, the animal can maintain its equilibrium for long periods of time. The animal was considered toxic if it fell off this rotating rod three times during a 1 min period.
# human mGlu2 receptor = biological target: T1, human mGlu2 receptor (Homo sapiens, UniProt Q14416); test: [35S]GTPγS binding assay, mGluR2 PAM; format: biochemical; conditions: in presence of glutamate at EC20; EC50 expressed in M; read-out: GTPγS - hmGluR2 PAM pEC50 (converted)
# T1 construct: expressed in transfected cells; host or cells: CHO cells
# Experimental: [^35S]GTPγS Binding Assay
# The [^35S]GTPγS binding assay is a functional membrane-based assay used to study G-protein coupled receptor (GPCR) function whereby incorporation of a non-hydrolysable form of GTP, [^35S]GTPγS (guanosine 5′-triphosphate, labelled with […] ^35S), is measured.
# Cells were then collected by scraping in PBS and cell suspension was centrifuged (10 min at 4000 RPM in benchtop centrifuge). Supernatant was discarded and pellet gently resuspended in 50 mM Tris-HCl, pH 7.4 by mixing with a vortex and pipetting up and down. The suspension was centrifuged at 16,000 RPM (Sorvall RC-5C plus rotor SS-34) for 10 minutes and the supernatant discarded. The pellet was homogenized in 5 mM Tris-HCl, pH 7.4 using an ultra-turrax homogenizer and centrifuged again (18,000 RPM, 20 min, 4° C.). The final pellet was resuspended in 50 mM Tris-HCl, pH 7.4 and stored at −80° C. in appropriate aliquots before use. Protein concentration was determined by the Bradford method (Bio-Rad, USA) with bovine serum albumin as standard.
# Measurement of mGluR2 positive allosteric modulatory activity of test compounds was performed as follows. Test compounds and glutamate were diluted in assay buffer containing 10 mM HEPES acid, 10 mM HEPES salt, pH 7.4, 100 mM NaCl, 3 mM MgCl2 and 10 μM GDP. Human mGlu2 receptor-containing membranes were thawed on ice and diluted in assay buffer supplemented with 14 μg/ml saponin. Membranes were pre-incubated with compound alone or together with a predefined (˜EC20) concentration of glutamate (PAM assay) for 30 min at 30° C. After addition of [^35S]GTPγS (f c. 0.1 nM), assay mixtures were shaken briefly and further incubated to allow [^35S]GTPγS incorporation on activation (30 minutes, 30° C.). Final assay mixtures contained 7 μg of membrane protein in 10 mM HEPES acid, 10 mM HEPES salt, pH 7.4, 100 mM NaCl, 3 mM MgCl2, 10 μM GDP and 2 μg/ml saponin. […] Filters were washed 6 times with ice-cold 10 mM NaH2PO4/10 mM Na2HPO4, pH 7.4. Filters were then air-dried, and 40 μl of liquid scintillation cocktail (Microscint-O) was added to each well. Membrane-bound radioactivity was counted in a Microplate Scintillation and Luminescence Counter from Perkin Elmer.
# The concentration-response curves of representative compounds of the present invention—obtained in the presence of EC20 of mGluR2 agonist glutamate to determine positive allosteric modulation (PAM)—were generated using the Lexis software interface (developed at J&J). Data were calculated as % of the control glutamate response, defined as the maximal response that is generated upon addition of glutamate alone. Sigmoid concentration-response curves plotting these percentages versus the log concentration of the test compound were analyzed using non-linear regression analysis. The concentration producing half-maximal effect is then calculated as EC50.
# The pEC50 values below were calculated as the −log EC50, when the EC50 is expressed in M. Emax is defined as relative maximal effect (i.e. maximal % effect relative to the control glutamate response).
# All compounds were tested in presence of mGluR2 agonist glutamate at a predetermined EC20 concentration, to determine positive allosteric modulation. pEC50 values were calculated from a concentration-response experiment of at least 8 concentrations.
# T1 sequence (Q14416 19-872): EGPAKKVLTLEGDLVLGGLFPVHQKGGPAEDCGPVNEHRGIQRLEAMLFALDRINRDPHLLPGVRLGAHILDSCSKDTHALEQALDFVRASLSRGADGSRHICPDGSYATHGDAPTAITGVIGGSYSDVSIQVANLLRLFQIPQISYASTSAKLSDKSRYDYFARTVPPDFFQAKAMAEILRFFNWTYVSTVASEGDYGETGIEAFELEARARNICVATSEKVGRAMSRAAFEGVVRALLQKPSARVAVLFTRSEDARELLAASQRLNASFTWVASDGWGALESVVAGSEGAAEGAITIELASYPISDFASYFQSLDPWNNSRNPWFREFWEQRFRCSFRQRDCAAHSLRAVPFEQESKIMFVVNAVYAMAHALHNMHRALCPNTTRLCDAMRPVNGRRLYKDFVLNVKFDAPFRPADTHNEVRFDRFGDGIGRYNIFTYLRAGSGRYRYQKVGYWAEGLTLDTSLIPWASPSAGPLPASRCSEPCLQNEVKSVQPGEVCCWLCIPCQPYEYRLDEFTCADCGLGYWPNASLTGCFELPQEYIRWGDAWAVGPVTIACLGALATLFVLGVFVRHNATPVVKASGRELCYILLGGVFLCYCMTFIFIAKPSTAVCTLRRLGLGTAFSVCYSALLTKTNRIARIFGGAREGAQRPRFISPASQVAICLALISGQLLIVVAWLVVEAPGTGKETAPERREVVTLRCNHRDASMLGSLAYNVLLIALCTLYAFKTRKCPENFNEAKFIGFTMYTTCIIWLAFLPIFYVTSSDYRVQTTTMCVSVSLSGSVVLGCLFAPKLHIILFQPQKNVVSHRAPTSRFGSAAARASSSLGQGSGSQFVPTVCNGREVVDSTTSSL
smiles,measurement,setting,value
"C[C@H](Oc1ccc(F)cc1F)c1ccn2c(CC3CC3)nnc2c1C(F)(F)F [Compound 6, 3-(Cyclopropylmethyl)-7-[(1S)-1-(2,4-difluorophenoxy)ethyl]-8-(trifluoromethyl)[1,2,4]triazolo[4,3-a]pyridine]",# rotarod motor impairment/# tested,"[1]; 10 mg/kg p.o., 0.25 h",0/4
same,# rotarod motor impairment/# tested,"[1]; 10 mg/kg p.o., 0.5 h",0/4
same,# rotarod motor impairment/# tested,"[1]; 10 mg/kg p.o., 1 h",0/4
same,# rotarod motor impairment/# tested,"[1]; 10 mg/kg p.o., 2 h",0/4
same,# rotarod motor impairment/# tested,"[1]; 10 mg/kg p.o., 4 h",0/4
same,# rotarod motor impairment/# tested,"[1]; 20 mg/kg p.o., 0.25 h",0/4
same,# rotarod motor impairment/# tested,"[1]; 20 mg/kg p.o., 0.5 h",0/4
same,# rotarod motor impairment/# tested,"[1]; 20 mg/kg p.o., 1 h",0/4
same,# rotarod motor impairment/# tested,"[1]; 20 mg/kg p.o., 2 h",0/4
same,# rotarod motor impairment/# tested,"[1]; 20 mg/kg p.o., 4 h",0/4
same,# rotarod motor impairment/# tested,"[1]; dose-response, 6 Hz 32 mA group, 2.5 mg/kg p.o., 0.5 h",0/8
same,# rotarod motor impairment/# tested,"[1]; dose-response, 6 Hz 32 mA group, 5 mg/kg p.o., 0.5 h",0/8
same,# rotarod motor impairment/# tested,"[1]; dose-response, 6 Hz 32 mA group, 10 mg/kg p.o., 0.5 h",0/8
same,# rotarod motor impairment/# tested,"[1]; dose-response, 6 Hz 32 mA group, 20 mg/kg p.o., 0.5 h",0/8
same,# rotarod motor impairment/# tested,"[1]; dose-response, 6 Hz 44 mA group, 10 mg/kg p.o., 0.5 h",0/8
same,# rotarod motor impairment/# tested,"[1]; dose-response, 6 Hz 44 mA group, 15 mg/kg p.o., 0.5 h",0/8
same,# rotarod motor impairment/# tested,"[1]; dose-response, 6 Hz 44 mA group, 20 mg/kg p.o., 0.5 h",0/8
same,# rotarod motor impairment/# tested,"[1]; dose-response, 6 Hz 44 mA group, 40 mg/kg p.o., 0.5 h",0/8
same,EC50,human mGlu2 receptor,40.7 nM
